In the kinase profiling compilation of Christmann-Franck et al. (2016):

Legend:
Assay in all cases: radiometric filter-binding kinase assay, Kinase HotSpot
Conditions in all cases: compound 0.5 µM; ATP 10 µM
MAP3K5 (human) = MAP3K5 (human) (UniProt Q99683)
CSNK1A1 (human) = CSNK1A1 (human) (UniProt P48729)
STK17A (human) = STK17A (human) (UniProt Q9UEE5)
CAMKK1 (human) = CAMKK1 (human) (UniProt Q8N5S9)
ADRBK1 (human) = ADRBK1 (human) (UniProt P25098)
EPHB1 (human) = EPHB1 (human) (UniProt P54762)
MAPKAPK2 (human) = MAPKAPK2 (human) (UniProt P49137)
NEK2 (human) = NEK2 (human) (UniProt P51955)
PKN2 (human) = PKN2 (human) (UniProt Q16513)
MAP4K2 (human) = MAP4K2 (human) (UniProt Q12851)
FGR (human) = FGR (human) (UniProt P09769)
FYN (human) = FYN (human) (UniProt P06241)
PBK (human) = PBK (human) (UniProt Q96KB5)
EPHA7 (human) = EPHA7 (human) (UniProt Q15375)
PRKCB2 (human) = PRKCB2 (human) (UniProt P05771)
STK33 (human) = STK33 (human) (UniProt Q9BYT3)
IGF1R (human) = IGF1R (human) (UniProt P08069)
TBK1 (human) = TBK1 (human) (UniProt Q9UHD2)
MUSK (human) = MUSK (human) (UniProt O15146)
CLK3 (human) = CLK3 (human) (UniProt P49761)
PRKCA (human) = PRKCA (human) (UniProt P17252)
MST1R (human) = MST1R (human) (UniProt Q04912)
ROCK1 (human) = ROCK1 (human) (UniProt Q13464)
IKBKB (human) = IKBKB (human) (UniProt O14920)
MAP3K11 (human) = MAP3K11 (human) (UniProt Q16584)
RPS6KB1 (human) = RPS6KB1 (human) (UniProt P23443)
MLTK (human) = MLTK (human) (UniProt Q9NYL2)
MYLK2 (human) = MYLK2 (human) (UniProt Q9H1R3)
PRKG2 (human) = PRKG2 (human) (UniProt Q13237)
CDK3 CCNE1 (human) = CDK3 CCNE1 (human) (UniProt Q00526+P24864)
CSNK2A1 (human) = CSNK2A1 (human) (UniProt P68400)
RIPK2 (human) = RIPK2 (human) (UniProt O43353)
ERBB2 (human) = ERBB2 (human) (UniProt P04626)
PAK4 (human) = PAK4 (human) (UniProt O96013)
PLK3 (human) = PLK3 (human) (UniProt Q9H4B4)
PRKCI (human) = PRKCI (human) (UniProt P41743)
EPHA3 (human) = EPHA3 (human) (UniProt P29320)
DYRK1B (human) = DYRK1B (human) (UniProt Q9Y463)
JAK3 JH1 JH2 (human) = JAK3 JH1 JH2 (human) (UniProt P52333)
CSNK1E (human) = CSNK1E (human) (UniProt P49674)
TYRO3 (human) = TYRO3 (human) (UniProt Q06418)
IKBKE (human) = IKBKE (human) (UniProt Q14164)

Sequence of CLK3 (human) (P49761 whole entry, looked up): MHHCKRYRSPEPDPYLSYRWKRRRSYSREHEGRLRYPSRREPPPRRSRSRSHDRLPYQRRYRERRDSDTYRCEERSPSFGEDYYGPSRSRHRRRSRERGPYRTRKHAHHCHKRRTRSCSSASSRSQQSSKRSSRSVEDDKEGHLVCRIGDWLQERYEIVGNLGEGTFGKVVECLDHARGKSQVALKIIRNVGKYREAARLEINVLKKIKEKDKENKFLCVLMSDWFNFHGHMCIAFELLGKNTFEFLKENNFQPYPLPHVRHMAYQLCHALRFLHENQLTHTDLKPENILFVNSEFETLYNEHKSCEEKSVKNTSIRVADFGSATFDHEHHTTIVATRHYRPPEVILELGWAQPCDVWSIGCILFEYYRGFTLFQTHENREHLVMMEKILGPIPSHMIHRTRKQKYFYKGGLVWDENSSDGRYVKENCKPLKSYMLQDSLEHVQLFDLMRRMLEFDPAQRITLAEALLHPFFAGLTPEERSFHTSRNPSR
Sequence of EPHA3 (human) (P29320 whole entry, looked up): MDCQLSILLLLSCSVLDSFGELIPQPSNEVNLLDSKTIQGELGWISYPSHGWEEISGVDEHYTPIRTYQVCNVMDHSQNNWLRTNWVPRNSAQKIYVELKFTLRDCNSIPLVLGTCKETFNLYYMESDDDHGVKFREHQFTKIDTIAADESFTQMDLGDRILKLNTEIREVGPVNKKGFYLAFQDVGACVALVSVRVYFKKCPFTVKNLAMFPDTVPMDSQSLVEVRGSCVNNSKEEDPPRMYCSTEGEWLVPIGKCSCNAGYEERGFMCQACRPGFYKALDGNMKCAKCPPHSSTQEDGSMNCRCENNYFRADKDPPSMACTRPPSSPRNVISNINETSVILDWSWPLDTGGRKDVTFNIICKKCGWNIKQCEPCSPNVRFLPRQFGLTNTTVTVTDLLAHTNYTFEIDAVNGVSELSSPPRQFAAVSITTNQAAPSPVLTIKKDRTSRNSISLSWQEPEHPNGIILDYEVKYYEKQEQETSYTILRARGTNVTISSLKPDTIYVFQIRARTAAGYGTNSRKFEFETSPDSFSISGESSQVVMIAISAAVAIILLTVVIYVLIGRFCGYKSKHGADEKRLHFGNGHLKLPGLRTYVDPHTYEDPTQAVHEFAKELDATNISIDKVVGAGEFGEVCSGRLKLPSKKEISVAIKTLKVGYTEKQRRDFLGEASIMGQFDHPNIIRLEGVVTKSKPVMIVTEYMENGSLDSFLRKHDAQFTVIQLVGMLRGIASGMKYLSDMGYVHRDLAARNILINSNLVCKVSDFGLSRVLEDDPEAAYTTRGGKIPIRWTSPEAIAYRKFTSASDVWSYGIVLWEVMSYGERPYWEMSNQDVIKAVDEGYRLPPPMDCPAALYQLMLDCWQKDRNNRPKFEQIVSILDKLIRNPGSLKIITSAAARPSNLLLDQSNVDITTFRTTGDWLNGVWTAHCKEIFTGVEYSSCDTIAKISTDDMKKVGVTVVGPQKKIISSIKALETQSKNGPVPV
Sequence of STK33 (human) (Q9BYT3 whole entry, looked up): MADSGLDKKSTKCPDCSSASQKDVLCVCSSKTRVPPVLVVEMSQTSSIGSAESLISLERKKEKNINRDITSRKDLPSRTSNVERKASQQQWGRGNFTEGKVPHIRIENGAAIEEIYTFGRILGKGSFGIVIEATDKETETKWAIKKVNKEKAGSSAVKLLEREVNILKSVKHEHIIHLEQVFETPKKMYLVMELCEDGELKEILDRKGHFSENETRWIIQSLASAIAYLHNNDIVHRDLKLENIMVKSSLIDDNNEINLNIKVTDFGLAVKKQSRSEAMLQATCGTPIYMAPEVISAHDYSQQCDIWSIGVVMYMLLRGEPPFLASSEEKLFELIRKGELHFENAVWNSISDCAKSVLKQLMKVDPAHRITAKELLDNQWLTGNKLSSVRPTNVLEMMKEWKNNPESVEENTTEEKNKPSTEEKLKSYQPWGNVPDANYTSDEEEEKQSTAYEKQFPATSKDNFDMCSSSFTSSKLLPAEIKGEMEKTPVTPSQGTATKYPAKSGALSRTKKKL
Sequence of PKN2 (human) (Q16513 whole entry, looked up): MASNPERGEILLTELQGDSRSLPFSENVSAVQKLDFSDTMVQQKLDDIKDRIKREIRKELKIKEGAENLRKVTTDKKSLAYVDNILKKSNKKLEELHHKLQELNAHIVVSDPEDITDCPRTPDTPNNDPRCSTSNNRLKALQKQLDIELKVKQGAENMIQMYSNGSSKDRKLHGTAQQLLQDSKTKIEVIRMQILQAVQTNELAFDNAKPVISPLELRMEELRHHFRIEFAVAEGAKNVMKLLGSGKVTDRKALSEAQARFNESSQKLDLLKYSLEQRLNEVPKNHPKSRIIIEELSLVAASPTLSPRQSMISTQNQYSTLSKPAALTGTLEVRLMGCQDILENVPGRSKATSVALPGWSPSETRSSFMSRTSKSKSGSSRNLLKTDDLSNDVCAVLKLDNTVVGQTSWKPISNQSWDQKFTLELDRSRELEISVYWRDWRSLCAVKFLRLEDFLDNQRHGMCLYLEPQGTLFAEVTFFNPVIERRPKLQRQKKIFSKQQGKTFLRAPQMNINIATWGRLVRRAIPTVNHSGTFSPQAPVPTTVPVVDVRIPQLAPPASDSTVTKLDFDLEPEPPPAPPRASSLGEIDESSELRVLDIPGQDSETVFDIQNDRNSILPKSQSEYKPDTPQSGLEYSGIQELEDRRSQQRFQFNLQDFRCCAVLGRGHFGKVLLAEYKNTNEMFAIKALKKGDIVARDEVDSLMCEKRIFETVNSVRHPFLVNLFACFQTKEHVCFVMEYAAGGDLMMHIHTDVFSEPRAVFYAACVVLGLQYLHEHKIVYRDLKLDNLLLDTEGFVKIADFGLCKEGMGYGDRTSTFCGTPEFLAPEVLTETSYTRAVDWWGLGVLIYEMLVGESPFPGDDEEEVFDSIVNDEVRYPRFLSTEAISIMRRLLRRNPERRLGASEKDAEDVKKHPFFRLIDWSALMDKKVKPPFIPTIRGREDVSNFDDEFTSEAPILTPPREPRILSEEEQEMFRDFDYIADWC
Sequence of MAPKAPK2 (human) (P49137 whole entry, looked up): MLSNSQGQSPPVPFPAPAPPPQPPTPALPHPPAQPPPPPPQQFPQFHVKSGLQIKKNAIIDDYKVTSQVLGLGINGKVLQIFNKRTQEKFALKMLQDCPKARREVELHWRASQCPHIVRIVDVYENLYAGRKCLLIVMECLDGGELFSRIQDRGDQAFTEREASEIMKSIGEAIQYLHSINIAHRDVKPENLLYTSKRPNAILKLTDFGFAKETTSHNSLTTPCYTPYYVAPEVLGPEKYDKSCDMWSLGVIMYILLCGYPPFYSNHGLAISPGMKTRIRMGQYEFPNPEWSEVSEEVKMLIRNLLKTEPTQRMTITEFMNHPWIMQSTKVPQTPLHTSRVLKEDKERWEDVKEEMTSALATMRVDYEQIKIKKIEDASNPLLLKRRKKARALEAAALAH
Sequence of CSNK2A1 (human) (P68400 whole entry, looked up): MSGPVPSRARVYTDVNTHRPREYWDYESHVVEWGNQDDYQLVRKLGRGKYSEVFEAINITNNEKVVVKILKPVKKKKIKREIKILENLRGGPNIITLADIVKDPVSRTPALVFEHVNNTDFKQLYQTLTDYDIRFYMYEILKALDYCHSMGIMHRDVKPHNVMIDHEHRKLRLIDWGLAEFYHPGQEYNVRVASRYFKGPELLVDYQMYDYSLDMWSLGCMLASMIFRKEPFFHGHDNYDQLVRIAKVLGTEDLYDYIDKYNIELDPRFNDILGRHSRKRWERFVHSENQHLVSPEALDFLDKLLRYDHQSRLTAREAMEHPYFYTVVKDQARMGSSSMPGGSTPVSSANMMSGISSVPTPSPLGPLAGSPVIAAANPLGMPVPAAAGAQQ
Sequence of PBK (human) (Q96KB5 whole entry, looked up): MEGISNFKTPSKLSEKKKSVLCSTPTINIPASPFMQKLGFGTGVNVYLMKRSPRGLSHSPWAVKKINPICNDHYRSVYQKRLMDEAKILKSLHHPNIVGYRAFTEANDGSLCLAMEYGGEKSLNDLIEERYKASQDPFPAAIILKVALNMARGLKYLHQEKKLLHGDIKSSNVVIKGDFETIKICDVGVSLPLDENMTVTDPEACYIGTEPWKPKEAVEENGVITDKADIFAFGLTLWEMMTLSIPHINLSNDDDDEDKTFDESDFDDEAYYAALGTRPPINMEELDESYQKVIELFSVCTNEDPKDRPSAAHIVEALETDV

Q: How did the residual activity (MAP3K5 (human)) turn out when `Nc1n[nH]c2nnc(-c3c(-c4ccccc4)nn4ccccc34)cc12` was run?
A: 99.3%

Q: What about the residual activity (CSNK1A1 (human)) of the same molecule?
A: 100%

Q: What about the residual activity (STK17A (human)) of the same molecule?
A: 99.9%

Q: What about the residual activity (CAMKK1 (human)) of the same molecule?
A: 125%

Q: And the residual activity (ADRBK1 (human))?
A: 95%

Q: What about the residual activity (EPHB1 (human)) of the same molecule?
A: 98.6%

Q: What about the residual activity (MAPKAPK2 (human)) of the same molecule?
A: 105%

Q: What about the residual activity (NEK2 (human)) of the same molecule?
A: 95.3%

Q: What about the residual activity (PKN2 (human)) of the same molecule?
A: 98.9%

Q: What about the residual activity (MAP4K2 (human)) of the same molecule?
A: 98.6%

Q: What about the residual activity (FGR (human)) of the same molecule?
A: 92.9%

Q: And the residual activity (FYN (human))?
A: 95%

Q: What about the residual activity (PBK (human)) of the same molecule?
A: 95%

Q: And the residual activity (EPHA7 (human))?
A: 99.5%

Q: And the residual activity (PRKCB2 (human))?
A: 99.7%

Q: What about the residual activity (STK33 (human)) of the same molecule?
A: 100%

Q: And the residual activity (IGF1R (human))?
A: 102%

Q: What about the residual activity (TBK1 (human)) of the same molecule?
A: 100%

Q: And the residual activity (MUSK (human))?
A: 96.8%

Q: What about the residual activity (CLK3 (human)) of the same molecule?
A: 94.9%

Q: And the residual activity (PRKCA (human))?
A: 87.2%

Q: And the residual activity (MST1R (human))?
A: 102%

Q: What about the residual activity (ROCK1 (human)) of the same molecule?
A: 100%

Q: What about the residual activity (IKBKB (human)) of the same molecule?
A: 115%

Q: And the residual activity (MAP3K11 (human))?
A: 94.3%

Q: And the residual activity (RPS6KB1 (human))?
A: 97.7%

Q: And the residual activity (MLTK (human))?
A: 101%

Q: And the residual activity (MYLK2 (human))?
A: 101%

Q: And the residual activity (PRKG2 (human))?
A: 104%

Q: What about the residual activity (CDK3 CCNE1 (human)) of the same molecule?
A: 96.8%

Q: And the residual activity (CSNK2A1 (human))?
A: 94.8%

Q: And the residual activity (RIPK2 (human))?
A: 87%

Q: And the residual activity (ERBB2 (human))?
A: 105%

Q: What about the residual activity (PAK4 (human)) of the same molecule?
A: 101%

Q: And the residual activity (PLK3 (human))?
A: 100%

Q: And the residual activity (PRKCI (human))?
A: 98.3%

Q: What about the residual activity (EPHA3 (human)) of the same molecule?
A: 97.8%

Q: What about the residual activity (DYRK1B (human)) of the same molecule?
A: 101%

Q: What about the residual activity (JAK3 JH1 JH2 (human)) of the same molecule?
A: 105%

Q: What about the residual activity (CSNK1E (human)) of the same molecule?
A: 80.9%

Q: What about the residual activity (TYRO3 (human)) of the same molecule?
A: 97.6%

Q: What about the residual activity (IKBKE (human)) of the same molecule?
A: 95.5%

Q: `Nc1nc(Nc2ccc(S(N)(=O)=O)cc2)nn1C(=O)c1c(F)cccc1F` was tested. Which residual activity (MAP3K5 (human)) did it give?
A: 103%

Q: What about the residual activity (CSNK1A1 (human)) of the same molecule?
A: 95.1%

Q: What about the residual activity (STK17A (human)) of the same molecule?
A: 83.9%

Q: What about the residual activity (CAMKK1 (human)) of the same molecule?
A: 86.4%

Q: And the residual activity (ADRBK1 (human))?
A: 97.3%

Q: And the residual activity (EPHB1 (human))?
A: 84.1%

Q: And the residual activity (MAPKAPK2 (human))?
A: 95.8%

Q: What about the residual activity (NEK2 (human)) of the same molecule?
A: 94.8%

Q: And the residual activity (PKN2 (human))?
A: 85.6%

Q: And the residual activity (MAP4K2 (human))?
A: 58.4%

Q: And the residual activity (FGR (human))?
A: 63.5%

Q: What about the residual activity (FYN (human)) of the same molecule?
A: 78.6%

Q: And the residual activity (PBK (human))?
A: 92.1%

Q: What about the residual activity (EPHA7 (human)) of the same molecule?
A: 68.7%

Q: And the residual activity (PRKCB2 (human))?
A: 90.5%

Q: And the residual activity (STK33 (human))?
A: 74.4%

Q: And the residual activity (IGF1R (human))?
A: 86.9%

Q: What about the residual activity (TBK1 (human)) of the same molecule?
A: 80%

Q: What about the residual activity (MUSK (human)) of the same molecule?
A: 83.1%

Q: And the residual activity (CLK3 (human))?
A: 65.8%

Q: And the residual activity (PRKCA (human))?
A: 55.7%

Q: What about the residual activity (MST1R (human)) of the same molecule?
A: 115%

Q: What about the residual activity (ROCK1 (human)) of the same molecule?
A: 42.6%

Q: What about the residual activity (IKBKB (human)) of the same molecule?
A: 105%

Q: What about the residual activity (MAP3K11 (human)) of the same molecule?
A: 47.2%

Q: And the residual activity (RPS6KB1 (human))?
A: 92.1%

Q: What about the residual activity (MLTK (human)) of the same molecule?
A: 100%

Q: What about the residual activity (MYLK2 (human)) of the same molecule?
A: 96.1%

Q: And the residual activity (PRKG2 (human))?
A: 92.2%

Q: And the residual activity (CDK3 CCNE1 (human))?
A: 32.4%

Q: And the residual activity (CSNK2A1 (human))?
A: 104%

Q: What about the residual activity (RIPK2 (human)) of the same molecule?
A: 77.8%

Q: And the residual activity (ERBB2 (human))?
A: 91.1%

Q: What about the residual activity (PAK4 (human)) of the same molecule?
A: 90%

Q: And the residual activity (PLK3 (human))?
A: 91.3%

Q: And the residual activity (PRKCI (human))?
A: 87.6%

Q: What about the residual activity (EPHA3 (human)) of the same molecule?
A: 107%

Q: And the residual activity (DYRK1B (human))?
A: 87.6%

Q: What about the residual activity (JAK3 JH1 JH2 (human)) of the same molecule?
A: 8.5%

Q: What about the residual activity (CSNK1E (human)) of the same molecule?
A: 96.9%

Q: What about the residual activity (TYRO3 (human)) of the same molecule?
A: 98.6%

Q: And the residual activity (IKBKE (human))?
A: 95.9%
